Data published in publication PMC11221189, “Gut microbiota DPP4-like enzymes are increased in type-2 diabetes and contribute to incretin inactivation” (Genome Biology, 2024).
Where “and” joins values, the source holds several entries; their conditions need not be identical. Identical values can stand only once. Entries after “also recorded” stand apart in the source; their conditions may differ. Peptide text beside a SMILES is read from it. * marks the point of attachment. pNA = O=[N+]([O-])c1ccc(N*)cc1

What was measured:
pmDPP4Δ23 = pmDPP4Δ23 (Parabacteroides merdae, UniProt A0AA37KD06); format: biochemical; details: for Effect on pmDPP4Δ23 hydrolytic activity (in words): gpPNA hydrolysis; for EC50 pmDPP4: gpPNA substrate, non-linear fit, sitagliptin and linagliptin data did not fit (R^2 ND)
depression-like behavior = details: obesogenic diet; cited from earlier work
[1] = tested on: T1, pmDPP4Δ23 (headed pmDPP4 in Table 1 and Table S1); assay: Colorimetric steady-state kinetics of gpPNA hydrolysis (0.31 to 2.5 mM) without inhibitor, 50 mM Tris-HCl pH 8.3, 37 °C, 380 nm, Lineweaver-Burk analysis.; format: biochemical; details: SD, n = 3; read-out: Km (mM), inhibitor 0 nM
T1 construct: N-terminal 6 x His tag; expressed from pET15b in E. coli BL21-DE3; dimer in solution
Protocol: (§1) The hydrolytic activity of the bacterial DPP4 enzyme was measured using Gly-Pro p-nitroanilide hydrochloride (gpPNA) (Sigma), as described for assessing hsDPP4 activity. […] Briefly, 20 µL of each cell-free supernatant was placed in triplicate in a flat 96-well plate. Two hundred microliters of the respective PNA solutions were plated in duplicate to obtain the standard curve. […] The enzymatic activity ([PNA generated (nM) / hydrolysis time (min)] / pmole enzyme) was quantified between 10 and 30 min of incubation time (linear kinetics). Three independent experiments with different purified protein batches were performed. The same protocol was followed for the murine samples (cecal content and plasma from the portal vein). In the case of the cecal content, the values of DPP4 activity were normalized by the amount of protein, quantified by the Bradford method (Bio-Rad, Hercules, CA).
Figure S3. Gliptin inhibition kinetics on pmDPP4Δ23. Lineweaver-Burk double-reciprocal (1/V and 1/S) plots showing pmDPP4Δ23 (bottom panels) and hsDPP4 (top panels) […]
(100 nM, burgundy lines) concentrations. The apparent Km was calculated respectively from inhibitor-associated data points using linear regression to find intersection point at the y-axis (1/S). V, reaction velocity (nmol PNA min-1 pmole enzyme-1); S, substrate concentration (mM gpPNA).
(1 picture or pasted object on this page, not shown here) […]

[2] = tested on: T1, pmDPP4Δ23 (headed pmDPP4 in Table 1 and Table S1); assay: Overall Km for gpPNA without inhibitor, from the colorimetric kinetics at pH 8.3 and 37 °C.; format: biochemical; details: read-out: overall estimated Km
Protocol: as §1

pmDPP4Δ23, sequence (A0AA37KD06 entry or part of it, stated change not applied): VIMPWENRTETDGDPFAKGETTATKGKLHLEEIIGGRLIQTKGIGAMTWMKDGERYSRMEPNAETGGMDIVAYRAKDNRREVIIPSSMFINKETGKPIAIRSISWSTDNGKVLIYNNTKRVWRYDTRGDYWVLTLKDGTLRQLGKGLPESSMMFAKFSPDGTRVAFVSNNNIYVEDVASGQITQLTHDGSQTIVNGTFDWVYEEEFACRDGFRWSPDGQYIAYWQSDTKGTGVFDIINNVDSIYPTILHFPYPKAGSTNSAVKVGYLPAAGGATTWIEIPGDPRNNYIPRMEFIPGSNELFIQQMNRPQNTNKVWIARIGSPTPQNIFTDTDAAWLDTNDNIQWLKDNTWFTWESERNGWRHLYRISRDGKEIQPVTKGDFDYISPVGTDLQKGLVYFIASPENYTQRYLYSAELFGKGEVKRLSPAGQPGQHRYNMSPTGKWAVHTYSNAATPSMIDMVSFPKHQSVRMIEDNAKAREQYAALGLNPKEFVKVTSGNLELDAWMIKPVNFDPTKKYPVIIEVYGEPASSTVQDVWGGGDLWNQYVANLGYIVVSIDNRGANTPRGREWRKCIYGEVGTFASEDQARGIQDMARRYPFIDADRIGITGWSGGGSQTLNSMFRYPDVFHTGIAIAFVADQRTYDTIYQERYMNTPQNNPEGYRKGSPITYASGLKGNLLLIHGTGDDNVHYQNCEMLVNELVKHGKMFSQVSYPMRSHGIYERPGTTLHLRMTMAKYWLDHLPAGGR

CC#CCn1c(N2CCC[C@@H](N)C2)nc2c1c(=O)n(Cc1nc(C)c3ccccc3n1)c(=O)n2C [Linagliptin, linagliptin]
Effect on pmDPP4Δ23 hydrolytic activity (in words) (pmDPP4Δ23): not inhibited; also recorded: almost null effect; also recorded: minimally inhibited

N#C[C@@H]1C[C@@H]2C[C@@H]2N1C(=O)[C@@H](N)C12CC3CC(CC(O)(C3)C1)C2 [Saxagliptin, saxagliptin]
EC50 pmDPP4 (pmDPP4Δ23): nanomolar range

N[C@@H](CC(=O)N1CCn2c(nnc2C(F)(F)F)C1)Cc1cc(F)c(F)cc1F [Sitagliptin, sitagliptin]
Depression-like behavior associated with increased systemic DPP4 activity (depression-like behavior): counteracted
Effect on pmDPP4Δ23 hydrolytic activity (in words) (pmDPP4Δ23): not inhibited; also recorded: almost null effect; also recorded: minimally inhibited

N#C[C@@H]1CCCN1C(=O)CNC12CC3CC(CC(O)(C3)C1)C2 [Vildagliptin, vildagliptin]
EC50 pmDPP4 (pmDPP4Δ23): nanomolar range

NCC(=O)N1CCC[C@H]1C(=O)Nc1ccc([N+](=O)[O-])cc1 [gpPNA, Gly-Pro p-nitroanilide] (H-Gly-Pro-pNA)
Km [1]: 1.6 mM and 1.79 mM and 1.66 mM and 1.46 mM
Km [2]: 1630 µM
